Experimental data published in publication PMC11494653, “Teixobactin “Swapmers” with L Tail Stereochemistry Retain Antibiotic Activity” (The Journal of Organic Chemistry, 2024).
Positions of bridges follow the written chain, without caps; N, C: chain ends. Non-standard residues stand in square brackets, D forms with d. Residues, ends and D or L forms follow the SMILES beside them. Chains are numbered I, II in the order given. NMeF = CN[C@@H](Cc1ccccc1)C(=O)O

Columns and labels:
Assay type in all cases: cell-based
[1] = test system: Staphylococcus epidermidis ATCC 14990; experiment: microbe, parasite or virus in culture; settings: ATCC 14990, 16 h
Source text: (§1) We determined the MIC values of these teixobactin swapmer prodrugs against the Gram-positive bacteria Bacillus subtilis, Staphylococcus epidermidis, methicillin-susceptible Staphylococcus aureus (MSSA), and methicillin-resistant Staphylococcus aureus (MRSA) in a broth microdilution assay as described previously.[9],[10] We used the antibiotic vancomycin as a positive control and the Gram-negative bacterium Escherichia coli as a negative control. The MIC values for Lys10-teixobactin 1, Lys10-teixobactin prodrug 2, Arg10-teixobactin 6, and Arg10-teixobactin prodrug 7 are shown in Table 1 for comparison with the swapmer analogues.
(§2) We performed minimum inhibitory concentration (MIC) assays as previously described.[9] A concise procedure is detailed below.
(§3) Stock solutions of teixobactin analogues were prepared gravimetrically by dissolving an appropriate amount of peptide in 20 mg/mL sterile DMSO. The stock solutions were stored at −20 °C for subsequent experiments.
(§4) Bacillus subtilis (ATCC 6051), Staphylococcus epidermidis (ATCC 14990), methicillin-susceptible Staphylococcus aureus (MSSA) (ATCC 29213), and Escherichia coli (ATCC 10798) were cultured from glycerol stocks in Mueller-Hinton broth containing 0.002% polysorbate 80 overnight in a shaking incubator at 37 °C. Methicillin-resistant Staphylococcus aureus (MRSA) (ATCC 700698) was cultured from a glycerol stock in brain hearth infusion broth containing 0.002% polysorbate 80 overnight in a shaking incubator at 37 °C. After overnight incubation, each culture was diluted with the appropriate media (containing 0.002% polysorbate 80) to 1 × 10^6 colony-forming units (CFU)/mL as previously described.[12],[15],[16] Briefly, we have previously determined the CFU/mL for each bacterium at OD600 = 0.075 for 200 μL of bacterial culture in a 96-well plate. The OD600 of each overnight culture was determined, and then each culture was diluted to OD600 = 0.075. Cultures were further diluted to achieve 1 × 10^6 CFU/mL solutions.
(§5) Aliquots of the 20 mg/mL peptide stock solutions were diluted to make a 64 μg/mL solution in Mueller-Hinton broth containing 0.002% polysorbate 80 and a 64 μg/mL solution in brain heart infusion broth containing 0.002% polysorbate 80. The solutions were mixed by pipetting to ensure homogeneity. A 200-μL aliquot of a 64 μg/mL solution was transferred to a 96-well plate. 2-fold serial dilutions were made with media containing 0.002% polysorbate 80 across the 96-well plate to achieve a final volume of 100 μL in each well (initial concentrations ranging from 64 to 0.0625 μg/mL). A 100-μL aliquot of a 1 × 10^6 CFU/mL bacterial solution was added to each well in the series, resulting in final bacterial concentrations of 5 × 10^5 CFU/mL in each well. As 100 μL of bacteria were added to each well, the concentration of peptide was also diluted 2-fold (final concentrations ranging from 32 μg/mL to 0.03125 μg/mL). Each plate was covered with a lid and incubated at 37 °C for 16 h. The optical density measurements were measured at 600 nm using a 96-well UV–vis plate reader (MultiSkan GO, Thermo Scientific). The MIC values were taken as the lowest concentration that had no bacterial growth. MIC assays for each compound were performed in triplicate to ensure reproducibility.

[2] = test system: Bacillus subtilis ATCC 6051; experiment: microbe, parasite or virus in culture; settings: ATCC 6051, 16 h
Source text: as §1, §2, §3, §4, §5

[3] = test system: Staphylococcus aureus (MSSA) ATCC 29213; experiment: microbe, parasite or virus in culture; settings: ATCC 29213, 16 h
Source text: as §1, §2, §3, §4, §5

[4] = test system: Escherichia coli ATCC 10798; experiment: microbe, parasite or virus in culture; settings: ATCC 10798, 16 h
Source text: as §1, §2, §3, §4, §5

[5] = test system: Staphylococcus aureus (MRSA) ATCC 700698; experiment: microbe, parasite or virus in culture; settings: ATCC 700698, 16 h
Source text: as §1, §2, §3, §4, §5

all bacteria tested = experiment: MIC broth microdilution assay, summary over all bacteria; settings: concentration range tested up to 32 μg/mL
Source text: as §1, §2, §3
as §4, with “After overnight incubation, each culture was diluted with the appropriate media (containing 0.002% polysorbate 80) to 1 × 10^6 colony-forming units (CFU)/mL as previously described.[12],[15],[16]” left out, “Cultures were further diluted to achieve 1 × 10^6 CFU/mL solutions.” left out
Aliquots of the 20 mg/mL peptide stock solutions were diluted to make a 64 μg/mL solution in Mueller-Hinton broth containing 0.002% polysorbate 80 and a 64 μg/mL solution in brain heart infusion broth containing 0.002% polysorbate 80. […] The optical density measurements were measured at 600 nm using a 96-well UV–vis plate reader (MultiSkan GO, Thermo Scientific). […]

CC[C@H](C)[C@H](NC(=O)[C@H](CCC(N)=O)NC(=O)[C@H](Cc1ccccc1)NC)C(=O)N[C@@H](CO)C(=O)N[C@H](C(=O)N[C@@H](CCC(N)=O)C(=O)N[C@H](C(=O)OC[C@H](N)C(=O)N[C@H]1C(=O)N[C@@H](C)C(=O)N[C@@H](CCCNC(=N)N)C(=O)N[C@@H]([C@@H](C)CC)C(=O)O[C@H]1C)[C@@H](C)CC)[C@@H](C)CC [compound 9, N-Me-Phe0,Gln1,Ile4,Gln5,[Ile6-O-Ser7],Arg10-teixobactin] (I: H-[NMeF]QISIQI / II: H-S[dT]ARI; ester I:C-II:1, II:2-II:C)
MIC Staphylococcus epidermidis ATCC 14990 [1]: >32 µg/mL
MIC Bacillus subtilis ATCC 6051 [2]: >32 µg/mL
MIC Staphylococcus aureus (MSSA) ATCC 29213 [3]: >32 µg/mL
MIC Escherichia coli ATCC 10798 [4]: >32 µg/mL
MIC Staphylococcus aureus (MRSA) ATCC 700698 [5]: >32 µg/mL
antibiotic activity in words against all bacteria tested (all bacteria tested): completely inactive
